Data reported in patent publication US20240091220A1, “METHODS OF MODULATING NEURONAL AND OLIGODENDROCYTE SURVIVAL” (priority 2021, published 2024).
“Also recorded” adds a separate entry of the source.

Columns and labels:
[1] = system: reactive ACM-mediated toxicity; settings: previous data, Liddelow et al. 2017; cited from earlier work
[2] = system: oligodendrocytes; assay: Oligodendrocyte live/dead survival with ethoxyquin, with or without reactive ACM; assay type: cell-based, rat; settings: for Slope of simple linear regression of oligodendrocyte survival on ethoxyquin dose: increasing doses of ethoxyquin in DMSO
Procedure: For collection of astrocyte conditioned media, plates of astrocyte cultures from identical preps were randomly chosen as control or reactive. Reactive astrocyte cultures were treated for 24 hours with IL1α (3 ng/ml, Sigma, 13901), TNF (30 ng/ml, Cell Signaling Technology, 8902SF), and C1q (400 ng/ml, MyBioSource, MBS143105). Control and reactive astrocyte conditioned media (ACM) was collected and spun at ˜2000 g for 5 minutes to remove any dead cells or cell debris. ACM was then concentrated in a Vivaspin 30 kDa centrifugation tubes (Cytiva 28932361) to ˜10× concentration for subsequent experiments. The protein concentration of ACM was determined by Bradford Assay (Sigma-B6916) and used to ensure identical concentrations of reactive versus control ACM were used for further experiments. ACM was presented at a dose of 50 μg/ml in all experiments not otherwise denoted with an alternative concentration.
Z1 (Zeiss) or on an Incucyte ZOOM (Essen Bioscience).

[3] = system: oligodendrocytes; settings: dose curve, live/dead analysis 24 hours after treatment
Procedure: Oligodendrocytes: Oligodendrocyte lineage cells were purified by immunopanning from P6 Sprague-Dawley forebrains and cultured as previously described (Dugas and Emery, “Purification of Oligodendrocyte Precursor Cells from Rat Cortices by Immunopanning,” Cold Spring Harbor Protocols 2013(8):745-758 (2013), which is hereby incorporated by reference in its entirety). Cortices were blunt dissected and enzymatically digested using papain at 37° C. and 10% CO2. Tissue was then mechanically triturated with a 5 mL serological pipette at room temperature to generate a single-cell suspension. […]
All experiments began with identically plated cells that were randomly chosen for treatment, ensuring identical starting cell numbers for control and experimental conditions. […] Identical acquisition and illumination conditions were used within each experiment and cells were counted in ImageJ using custom macros, which involved background subtraction and thresholding following by particle counting. […]

CCOC(=O)c1ccc(NC2CCCCC2)c(N)c1 [Ferrostatin-1]
Effect on reactive ACM-mediated (astrocyte) toxicity [1]: does not affect; also recorded: has no effect

CCOc1ccc2c(c1)C(C)=CC(C)(C)N2 [ethoxyquin]
Slope of simple linear regression of oligodendrocyte survival on ethoxyquin dose ([2]; with 30 μg/ml reactive ACM): −0.000001788
Slope of simple linear regression of oligodendrocyte survival on ethoxyquin dose ([2]; without reactive ACM): −0.0000025
Effect on toxicity of reactive ACM to oligodendrocytes ([2]; with reactive ACM): had no effect; also recorded: did not impact the toxicity of reactive ACM
Effect on oligodendrocyte survival when treated in isolation ([2]; without reactive ACM): did not impact cell survival

CCCCCCCCCCCCCCCCCCCC(=O)OC[C@H](COP(=O)([O-])OCC[N+](C)(C)C)OC(=O)CCCCCCCCCCCCCCCCCCC [phosphatidylcholines (20:0)]
Toxicity to oligodendrocytes (survival) [3]: toxic to oligodendrocytes in a dose-dependent fashion
